Assay results from ChEMBL document CHEMBL1201862, “PubChem BioAssay data set” (2004).
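Results reflect a 48-hour exposure of cells in 96-well plates to compound at five concentrations. GI50 marks 50% less growth.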 Active and inactive are the calls of the source. Rule as the data show it: active = GI50 up to about 1.1 µM and inactive = higher.

How the values were obtained:
Assay in all cases: NCI-60 cell line screen, 48 h
[1] = tested on: DLD-1
[2] = tested on: DMS-114
[3] = tested on: DMS-273
[4] = tested on: HOP-18
[5] = tested on: KM-20L2
[6] = tested on: M19-MEL
[7] = tested on: SNB-78
[8] = tested on: XF498
[9] = tested on: RXF 631

Measured: GI50

C1CSCCSCCCS[C@@H]2CCCCC2SC1 (some centres undefined)
inactive: [1] > 100 µM | [2] 28.2 µM | [3] > 100 µM | [4] > 100 µM | [5] > 100 µM | [6] > 100 µM | [7] > 100 µM

O=C1c2ccncc2C(=O)c2c(O)ccc(O)c21
inactive: [2] 3.01 µM | [4] 12.9 µM | [5] 2.88 µM | [6] 1.32 µM | [8] 4.16 µM

O=C1N/C(=C\[N+](=O)[O-])c2ccccc21
inactive: [1] > 100 µM | [2] > 100 µM | [3] > 100 µM | [4] > 100 µM | [5] > 100 µM | [6] > 100 µM | [9] > 100 µM | [7] > 100 µM

C=C(c1ccccc1)[C@@]1(O)CC[C@@H]1N(CC#N)Cc1ccccc1
inactive: [1] 19.6 µM | [2] 17 µM | [3] 20.5 µM | [4] 14.6 µM | [5] 63.1 µM | [6] 28.3 µM | [7] 31.2 µM

NC(=S)N/N=C1/C(=O)N(c2ccccc2)C(=O)C1C(=O)Nc1ccccc1 (centres undefined)
inactive: [2] > 100 µM | [3] > 100 µM | [4] > 100 µM | [5] > 100 µM | [6] > 100 µM | [9] > 100 µM | [7] > 100 µM | [8] > 100 µM

COc1cc(NS(C)(=O)=O)ccc1NCc1c2ccccc2nc2ccccc12
inactive: [1] 17.1 µM | [2] 17.3 µM | [3] 28.4 µM | [5] 50.8 µM | [6] > 10 µM | [9] 15 µM | [8] 33.4 µM

CC1CSC(=S)N1C(=O)N1C(=S)SCC1C (centres undefined)
inactive: [1] 19.3 µM | [2] 38.3 µM | [3] 20.1 µM | [4] 53.6 µM | [5] 38.7 µM | [6] 25.6 µM | [7] 43.2 µM

COc1ccc(C2=C(Cl)c3cc(OC)c(OC)cc3C2Cl)cc1OC (centres undefined)
inactive: [1] 15.3 µM | [3] 14.3 µM | [4] 21.7 µM | [5] 15.6 µM | [6] 17.3 µM | [9] 19.1 µM | [7] 20.7 µM | [8] 16 µM

NC(=O)CN(CC(N)=O)C(N)=O
inactive: [2] > 100 µM | [3] > 100 µM | [4] > 100 µM | [5] > 100 µM | [6] > 100 µM | [7] > 100 µM | [8] > 100 µM

O=C1O[C@@H](c2ccccc2)C[C@@H]1CN1CCOCC1
inactive: [1] > 100 µM | [2] > 100 µM | [5] > 100 µM | [9] > 100 µM | [7] > 100 µM | [8] > 100 µM

CC1=CC(=O)c2cccc(O)c2C1=O
inactive: [1] 1.66 µM | [2] 2.74 µM | [3] 2.42 µM | [4] 1.7 µM | [5] 20.5 µM | [6] 1.98 µM | [7] > 32.1 µM | [8] 1.79 µM

CCCN(CCCCC(NC(C)=O)C(=O)NCc1ccccc1)C(=O)NCCCl (centres undefined)
inactive: [1] > 100 µM | [2] > 100 µM | [3] > 100 µM | [4] > 100 µM | [5] > 100 µM | [6] > 100 µM | [9] > 100 µM | [8] > 100 µM

O=C(NCCCN1CCN(CCCNC(=O)c2cnc3ccccc3n2)CC1)c1cnc2ccccc2n1
inactive: [1] > 100 µM | [2] 70.1 µM | [3] > 100 µM | [4] > 100 µM | [5] > 100 µM | [6] > 100 µM | [9] > 100 µM | [7] > 100 µM

O=[N+]([O-])CCc1cccc([N+](=O)[O-])c1
inactive: [1] > 100 µM | [2] > 100 µM | [3] > 100 µM | [4] > 100 µM | [5] > 100 µM | [6] > 100 µM | [7] > 100 µM

CCCC(=O)CC(C)C(=O)C(=O)NC12CC3CC(CC(C3)C1)C2 (centres undefined)
inactive: [1] > 100 µM | [3] > 100 µM | [4] > 100 µM | [5] > 100 µM | [7] > 100 µM | [8] > 100 µM

COc1ccc(/C=C/C(=O)c2sc(NC(=S)NC(=O)c3ccc(Cl)cc3)nc2C)cc1OC
inactive: [1] 49.4 µM | [2] 41.6 µM | [4] 5.89 µM | [5] > 100 µM | [6] 53.2 µM | [9] 48.6 µM | [7] 54.3 µM | [8] 34.8 µM

COc1ccc(C(C#N)NNc2nc(C)cc(O)n2)cc1OC (centres undefined)
inactive: [1] > 100 µM | [2] > 100 µM | [3] > 100 µM | [4] > 100 µM | [5] > 100 µM | [6] > 100 µM | [7] > 100 µM

COc1cc(Br)c(C2OCCCO2)cc1OCc1ccccc1
inactive: [1] 39.8 µM | [2] 47.1 µM | [3] 37.6 µM | [5] > 100 µM | [6] > 100 µM | [9] > 100 µM | [7] 61.4 µM

Nc1c(-c2ccccc2-c2c(N)[n+]([O-])c3ccccc3[n+]2[O-])[n+]([O-])c2ccccc2[n+]1[O-]
inactive: [1] 4.63 µM | [2] 3.36 µM | [3] 4.66 µM | [4] 7.71 µM | [5] 4.33 µM | [6] 8.41 µM | [7] 71.8 µM

CC(=O)O[C@H]1CCC2[C@@H]3CCC4Nc5c(cnn5-c5ccccc5)C[C@]4(C)C3CC[C@@]21C (some centres undefined)
inactive: [1] 32.7 µM | [2] 11.7 µM | [3] 3.18 µM | [4] 31.8 µM | [5] 8 µM | [6] 11.7 µM | [9] 14.9 µM | [7] 14.4 µM | [8] 6.52 µM

CC1CCC2(C)C(CC=C(C=O)C2(O)C=O)C12CO2 (centres undefined)
inactive: [2] 1.57 µM | [3] 1.79 µM | [5] 2.49 µM | [6] 1.73 µM | [9] 1.99 µM | [7] 2.07 µM | [8] 2.17 µM

CC(=O)N1c2ccccc2C2=CC3C4C(=O)N(c5ccccc5)C(=O)C4C21C1C(=O)N(c2ccccc2)C(=O)C31 (centres undefined)
inactive: [1] 23.4 µM | [2] 4.27 µM | [4] 34.4 µM | [5] 30.3 µM | [7] 84.5 µM | [8] 10.9 µM

CN1CC(=O)N2Cc3ccccc3-n3cccc3C2C1 (centres undefined)
inactive: [1] > 100 µM | [3] > 100 µM | [4] 4.92 µM | [5] > 100 µM | [6] > 100 µM | [9] > 100 µM | [7] > 100 µM | [8] > 100 µM

COc1ccc2c(c1)C(CCN)C(=O)N2 (centres undefined)
inactive: [1] > 100 µM | [2] > 100 µM | [3] > 100 µM | [4] > 100 µM | [5] > 100 µM | [6] > 100 µM | [9] > 100 µM | [7] > 100 µM | [8] > 100 µM

COc1ccc(C2=NOP(c3ccccc3)(c3ccccc3)(c3ccccc3)C2)cc1
inactive: [1] 20.8 µM | [2] 8.61 µM | [3] 16.6 µM | [4] 24.9 µM | [5] 10 µM | [6] 21.7 µM | [9] 22.4 µM | [7] 36.5 µM | [8] 20.7 µM
